The target in assay [1] is T1, hSERT (Homo sapiens, UniProt P31645).
T1 construct: cells were stimulated with staurosporine (40 nM) to increase the expression of the 5-HT transporter; host or cells: JAR (human placental choriocarcinoma)
Briefly: Serotonin (5-HT) uptake assay in JAR cells. The following applies: for hSERT % specific 5-HT uptake: at 1 μM. The class given is cell-based. As for the experimental part:
(§1) Cells were plated at 300,000/T75 flask and cells were split twice weekly. […] Cells were plated at 250,000 cells/T75 flask and split twice weekly.
The methods for 5-HT functional reuptake using the JAR cell line were modified using a previous literature report. […] On day 2, cells were stimulated with staurosporine (40 nM) to increase the expression of the 5-HT transporter. On day 3, cells were removed from the cell incubator two hours prior to assay and maintained at room temperature to equilibrate the growth medium to ambient oxygen concentration. Subsequently, the growth medium was replaced with 200 μl of assay buffer (25 mM HEPES; 120 mM NaCl; 5 mM KCl; 2.5 mM CaCl2; 1.2 mM MgSO4; 2 mg/ml glucose (pH 7.4, 37° C.)) containing 0.2 mg/ml ascorbic acid and 10 μM pargyline. […] Data from these wells were used to define non-specific 5-HT uptake (minimum 5-HT uptake). Test compounds were prepared in DMSO (10 mM) and diluted in assay buffer according to test range (1 to 1,000 nM). Twenty-five microliters of assay buffer (maximum 5-HT uptake) or test compound were added directly to triplicate wells containing cells in 200 μl of assay buffer. The cells were incubated with the compound for 10 minutes (37° C.). […] The cells were incubated with the reaction mixture for 5 minutes at 37° C. The 5-HT uptake reaction was terminated by decanting the assay buffer. The cells were washed twice with 200 μl assay buffer (37° C.) to remove free radioligand. The plates were inverted and left to dry for 2 minutes, then reinverted and air-dried for an additional 10 minutes. Subsequently, the cells were lysed in 25 μl of 0.25 N NaOH (4° C.) then placed on a shaker table and shaken vigorously for 5 minutes. After cell lysis, 75 μl of scintillation cocktail was added to the wells, the plates were sealed with film tape and replaced on the shake table for a minimum of 10 minutes. The plates were counted in a Wallac Microbeta counter (PerkinElmer) to collect the raw cpm data.
(§2) For each experiment, a data stream of cpm values collected from the Wallac Microbeta counter was downloaded to a Microsoft Excel statistical application program. Determination of percent specific NE uptake (% SB) at 1 μM are calculated using a Microsoft Excel spread sheet applying the following formula: [% SB of NE reuptake (% SB)=[(1−(mean cpm control wells−each cpm drug well)/(mean cpm control wells−mean cpm non-specific wells))×100]. Calculations of EC50 values were made using the transformed-both-sides logistic dose response program written by Wyeth Biometrics Department.

For assay [2], the target named is T2, human hNET (Homo sapiens, UniProt P23975).
T2 construct: expressed in transfected cells
T2 sequence (P23975 whole entry): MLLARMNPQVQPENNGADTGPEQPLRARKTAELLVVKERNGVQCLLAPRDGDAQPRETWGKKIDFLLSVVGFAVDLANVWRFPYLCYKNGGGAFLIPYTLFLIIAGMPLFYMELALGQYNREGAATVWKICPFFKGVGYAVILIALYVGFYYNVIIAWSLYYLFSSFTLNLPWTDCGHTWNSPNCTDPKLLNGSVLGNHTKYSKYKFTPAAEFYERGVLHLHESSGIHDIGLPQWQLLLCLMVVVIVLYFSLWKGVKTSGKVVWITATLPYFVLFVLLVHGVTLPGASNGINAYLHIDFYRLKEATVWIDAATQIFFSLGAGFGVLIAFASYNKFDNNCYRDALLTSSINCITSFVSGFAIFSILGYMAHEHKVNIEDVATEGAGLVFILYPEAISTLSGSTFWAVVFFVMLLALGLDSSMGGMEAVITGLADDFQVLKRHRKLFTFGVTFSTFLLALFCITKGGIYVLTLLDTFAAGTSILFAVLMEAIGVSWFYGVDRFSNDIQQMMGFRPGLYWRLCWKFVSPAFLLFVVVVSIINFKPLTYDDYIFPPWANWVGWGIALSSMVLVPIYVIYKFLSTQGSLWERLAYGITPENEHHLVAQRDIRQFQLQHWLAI
The experiment in a line: Norepinephrine (NE) uptake assay in MDCK-Net6 cells. The following applies: for hNET % Specific NE uptake: at 1 μM. Type of assay: cell-based. As for the experimental part:
as §1
On day 1, cells were plated at 3,000 cells/well in growth medium and maintained in a cell incubator (37° C., 5% CO2). On day 2, growth medium was replaced with 200 μl of assay buffer (25 mM HEPES; 120 mM NaCl; 5 mM KCl; 2.5 mM CaCl2; 1.2 mM MgSO4; 2 mg/ml glucose (pH 7.4, 37° C.)) containing 0.2 mg/ml ascorbic acid and 10 μM pargyline. Plates containing cells with 200 μl of assay buffer were equilibrated for 10 minutes at 37° C. prior to addition of compounds. […] Data from these wells were used to define non-specific NE uptake (minimum NE uptake). Test compounds were prepared in DMSO (10 mM) and diluted in assay buffer according to test range (1 to 10,000 nM). Twenty-five microliters of assay buffer (maximum NE uptake) or test compound were added directly to triplicate wells containing cells in 200 μl of assay buffer. The cells in assay buffer with test compounds were incubated for 20 minutes at 37° C. […] The reaction was terminated by decanting the supernatant from the plate. The plates containing cells were washed twice with 200 μl assay buffer (37° C.) to remove free radioligand. The plates were then inverted, left to dry for 2 minutes, then reinverted and air dried for an additional 10 minutes. The cells were lysed in 25 μl of 0.25 N NaOH solution (4° C.), placed on a shake table and vigorously shaken for 5 minutes. After cell lysis, 75 μl of scintillation cocktail was added to each well and the plates were sealed with film tape. The plates were returned to the shake table and vigorously shaken for a minimum of 10 minutes to ensure adequate partitioning of organic and aqueous solutions. The plates were counted in a Wallac Microbeta counter (PerkinElmer) to collect the raw cpm data.
as §2

In assay [3] the test system is naloxone-induced flush in morphine-dependent ovariectomized rats. The experiment in a line: Morphine-dependent rat model of hot flush (naloxone-induced flush, MD model). The following applies: for effect on naloxone-induced flush at maximal flush: 30 mg/kg intraperitoneally; for changes in TST over time, effect on naloxone-induced flush: various doses; for ED50 value, abatement of naloxone-induced flush: maximal flush 15 minutes post-naloxone.
Method: (§3) Dosing: All doses were prepared based on mg/kg.
(§4) Animals: Ovariectomized Sprague-Dawley rats (180-220 g) were obtained from a commercial vendor (Taconic, Germantown, N.Y.) and individually housed under 12 hours light/dark cycle in a room maintained at 25° C. Animals were provided with standard rat chow and water ad libitum.
Morphine-dependent model: Ovariectomized rats were injected once daily for 8-9 days with vehicle to minimize stress responses and then administered compound(s) on test day. On day 4 of dosing, morphine dependence was induced by sc implantation of two slow-release morphine pellets (75 mg/pellet) in the dorsal scapular region. […] Four to six days after implantation, morphine withdrawal was induced with an opioid antagonist (naloxone) that causes a transient increase in TST. […] Rats were mildly sedated with ketamine and a thermistor connected to a MacLab data acquisition system was taped to the base of the tail. Tail skin temperature was then monitored continuously for 35 minutes to establish a baseline temperature. Naloxone was subsequently administered and TST was measured for an additional 35 to 60 minutes (total recording time 70 to 95 minutes).
Statistical analysis: To analyze changes in TST induced by naloxone in morphine-dependent rats, all data were analyzed using a two factor repeated measure ANOVA for “treatment” and “time.” The model was fit to test whether there were significant differences in the responses between treatment groups. Naloxone administration is designated as time zero and data is then analyzed at 5 minute intervals. The first three readings were averaged and used as baseline TST scores. All data were analyzed as ΔTST (TST for each time point-baseline). Multiple comparisons (LSD p-values) among the treatment groups at each time point were used for the analysis. Efficacy of hot flush abatement was determined by evaluating statistical differences at the peak response time of 15 minutes post-nalbxone, when the maximal change in TST is observed. A customized SAS-excel (SAS Institute, Cary, N.C.) application was used applying a four parameter logistic model to determine ED50 values. A logistic dose transformation was performed on ΔTST. Maximum flush (ΔTST at 15 minutes post-naloxone) was used in the analysis and the minimum was locked at zero. […] Statisticians in the Biometrics Department (Wyeth Research, Collegeville, Pa.) developed a customized JMP application.

Assay [4] concerns tail skin temperature of ovariectomized rats. Briefly: OVX-induced thermoregulatory dysfunction telemetry model. The following applies: 60 mg/kg sc.
Method: as §3, §4
A temperature and physical activity transmitter (PhysioTel TA10TA-F40, Data Sciences International) was implanted subcutaneously in the dorsal scapular region and the tip of the temperature probe was tunneled subcutaneously 2.5 cm beyond the base of the tail. After a 7-day recovery period, TST readings were continuously recorded for the remainder of the study. Tail skin temperature readings were collected from each animal every 5 minutes with values obtained over a 10 second sampling period. The day before test day, an average baseline TST value was calculated for each animal by averaging temperature readings recorded during the 12 hours active (dark) phase. In these studies, animals were dosed approximately 1 hour prior to the onset of dark cycle.
Evaluation of a compound's ability to restore normal lowering of TST in the telemetry model was analyzed using hourly TST values calculated for each animal by averaging the 12 temperature readings obtained every 5 minutes over that recording time. To analyze ΔTST in the telemetry model, a two factors repeated measure ANOVA was performed. The model used for analysis was ΔTST=GRP (group)+HR (hours)+GRP*HR+BASELINE. Thus, the reported least squares means are the expected mean values as if both groups had the same baseline value. Post-hoc tests of hourly GRP*HR samples are t-tests of the difference between groups for each hour. To be conservative, a result was not considered significant unless the p-value was <0.025. All analyses were performed using SAS PROC MIXED (SAS, Carey, N.C.).
Where [5] appears, read: [3H]5-HT uptake, JAR cells, read-out: hSERT EC50.

Like-named read-outs stand apart in the source and are kept apart here.

T1 sequence (P31645 whole entry): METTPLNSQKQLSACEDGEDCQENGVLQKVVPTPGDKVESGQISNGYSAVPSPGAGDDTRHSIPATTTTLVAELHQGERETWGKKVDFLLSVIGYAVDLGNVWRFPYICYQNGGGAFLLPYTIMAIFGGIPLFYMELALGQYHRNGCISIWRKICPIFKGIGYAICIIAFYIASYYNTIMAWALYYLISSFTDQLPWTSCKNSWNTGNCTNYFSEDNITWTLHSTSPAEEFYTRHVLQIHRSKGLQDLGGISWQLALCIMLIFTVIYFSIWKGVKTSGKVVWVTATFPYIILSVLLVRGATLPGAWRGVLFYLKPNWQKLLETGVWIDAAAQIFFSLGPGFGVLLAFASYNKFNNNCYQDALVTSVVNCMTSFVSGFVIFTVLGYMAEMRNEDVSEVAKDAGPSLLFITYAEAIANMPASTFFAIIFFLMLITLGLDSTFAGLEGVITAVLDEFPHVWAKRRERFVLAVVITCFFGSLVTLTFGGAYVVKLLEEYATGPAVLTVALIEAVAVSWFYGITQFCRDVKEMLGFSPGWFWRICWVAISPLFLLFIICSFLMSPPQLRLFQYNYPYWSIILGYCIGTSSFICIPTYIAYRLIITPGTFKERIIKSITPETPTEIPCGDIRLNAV

Turning to `OC1(C(CN2CCN(Cc3ccccc3)CC2)c2ccc(F)cc2)CCCCC1` (centres unmarked) [1-[1-(4-fluorophenyl)-2-[4-(phenylmethyl)-1-piperazinyl]ethyl]cyclohexanol], in assay [1], the “hSERT % specific 5-HT uptake” value turned out to be 88%. The “hNET % Specific NE uptake” value in assay [2] is recorded as 53%.
As to `COc1cccc(C(CN2CCN(c3cccc(C(F)(F)F)c3)CC2)C2(O)CCCC2)c1` (centres unmarked) [1-[1-(3-methoxyphenyl)-2-[4-[3-(trifluoromethyl)-phenyl]-1-piperazinyl]ethyl]cyclopentanol], the “hSERT % specific 5-HT uptake” value in assay [1] was 82%. In assay [2], the “hNET % Specific NE uptake” value was 57%.
The matching figures for `COc1cccc(C(CN2CCN(c3cccc(C(F)(F)F)c3)CC2)C2(O)CCCCC2)c1` (centres unmarked) [1-[1-(3-methoxyphenyl)-2-[4-[3-(trifluoromethyl)-phenyl]-1-piperazinyl]ethyl]cyclohexanol]: 87% and 38%.
On to `CN(C)CC(c1cccc(Cl)c1)C1(O)CCCCC1` (centres unmarked) [WY-781], for which, in assay [3] (1 hour prior to naloxone), the “effect on naloxone-induced flush at maximal flush” value is on record as “abated the naloxone-induced flush”.
As for `OC1(C(CN2CCN(c3cccc(Cl)c3)CC2)c2cccc(Cl)c2)CCCCC1` (centres unmarked) [1-[1-(3-chlorophenyl)-2-[4-(3-chlorophenyl)-1-piperazinyl]ethyl]cyclohexanol], in assay [1], the “hSERT % specific 5-HT uptake” value worked out at 72%. Besides, the “hNET % Specific NE uptake” value in assay [2] is 23%.
The matching figures for `COc1cccc(C(CN2CCN(Cc3ccccc3)CC2)C2(O)CCCCC2)c1` (centres unmarked) [1-[1-(3-methoxyphenyl)-2-[4-phenylmethyl)-1-piperazinyl]ethyl]cyclohexanol]: 49% and 43%.
In the case of `CCC1(c2cnc[nH]2)Cc2ccccc2C1` [atipamezole], the “changes in TST after naloxone, alone” value in assay [3] (0.3 mg/kg sc, 55 minutes prior to naloxone) is listed as “not significantly different from vehicle treated rats”.
In the case of `CN(C)CC(c1ccc(O)cc1)C1(O)CCCCC1` (centres unmarked) [DVS-233, O-desmethyl-venlafaxine], in assay [4], the “changes in TST over time” value was “significantly and transiently decreases TST during the active phase”.
For orientation: EC50 means the concentration needed to bring the measured effect to its halfway point. Regarding `CN1CCN(CC(c2cccc(Cl)c2)C2(O)CCCCC2)CC1` (racemic) [1-[1-(3-chlorophenyl)-2-(4-methyl-1-piperazinyl)ethyl]cyclohexanol], the EC50 stood at 15500 nM in assay [1] (setting [5]) and 55 nM in assay [2]. Moreover, the “changes in TST over time, effect on naloxone-induced flush” value in assay [3] (sc) is “dose-dependently abate the naloxone-induced flush”.
As to `COc1cccc(C(CN2CCN(c3cncc(Cl)n3)CC2)C2(O)CCCCC2)c1` (centres unmarked) [1-[2-[4-(6-chloro-2-pyrazinyl)-1-piperazinyl]-1-[3-methoxyphenyl)ethyl]cyclohexanol], the “hSERT % specific 5-HT uptake” value in assay [1] turned out to be 58%. In assay [2], the “hNET % Specific NE uptake” value was 59%.
The matching figures for `COc1cccc(C(CN2CCN(c3cccc(Cl)c3)CC2)C2(O)CCCCC2)c1` (centres unmarked) [1-[2-(3-chlorophenyl)1-piperazinyl]-1-[3-methoxyphenyl)ethyl]cyclohexanol]: 67% and 64%.
With `COc1ccc([C@H](CN(C)C)C2(O)CCCCC2)cc1` (single isomer, unassigned) [R-venlafaxine, R-enantiomer of venlafaxine], in assay [3] (sc, 1 hour prior to naloxone), the “ED50 value, abatement of naloxone-induced flush” value was 8.3+3 mg/kg.
Same read-out and setting: to `COc1ccc([C@@H](CN(C)C)C2(O)CCCCC2)cc1` (single isomer, unassigned) [S-venlafaxine, S-enantiomer of venlafaxine] belongs 10.9+3 mg/kg.
Still for that read-out and setting: in the case of `CN(C)C[C@H](c1ccc(O)cc1)C1(O)CCCCC1` (single isomer, unassigned) [S-ODV, S-enantiomer of ODV] it was 13.3+8 mg/kg.
Compound `CNCCC(Oc1ccccc1OC)c1ccccc1` (centres unmarked) [nisoxetine, reference compound] showed an EC50 in assay [1] of 275 nM.
Consider `CN1CCN(CC(c2cccc(F)c2)C2(O)CCCCC2)CC1` (centres unmarked) [1-[1-(3-fluorophenyl)-2-(4-methyl-1-piperazinyl)ethyl]cyclohexanol], for which, in assay [1] ([3H]5-HT uptake, JAR cells), the “hSERT EC50” value is “Inactive at 1 μm”. Moreover, the EC50 in assay [2] was found to be 240 nM.
Take `OC1(C(CN2CCN(Cc3ccccc3)CC2)c2cccc(C(F)(F)F)c2)CCCCC1` (centres unmarked) [1-[2-[4-(phenylmethyl)]-1-piperazinyl]-1-[3-(trifluoromethyl)phenyl]ethyl]cyclohexanol]: in assay [1], the “hSERT % specific 5-HT uptake” value is given as 94%. Besides, the “hNET % Specific NE uptake” value in assay [2] is 19%.
For the compound `CN(C)CC(c1cccc(C(F)(F)F)c1)C1(O)CCCCC1` (centres unmarked) [WY-867], the “effect on naloxone-induced flush at maximal flush” value in assay [3] (1 hour prior to naloxone) is given as “abated the naloxone-induced flush”.
As for `COc1ccc(C(CN2CCN(C)CC2)C2(O)CCCCC2)cc1` (centres unmarked) [1-[1-(4-methoxyphenyl)-2-[4-methyl-1-piperazinyl)ethyl]cyclohexanol], the “hSERT % specific 5-HT uptake” value in assay [1] is recorded as 79%. Moreover, in assay [2], the “hNET % Specific NE uptake” value was determined as 65%.
Regarding `CN1CCN(CC(c2cccc(C(F)(F)F)c2)C2(O)CCCCC2)CC1` (centres unmarked) [1-[2-(4-methyl-1-piperazinyl)-1-[3-(trifluoromethyl)-phenyl]ethyl]cyclohexanol], the half-maximal effective concentration (EC50) in assay [1] (setting [5]) worked out at 33600 nM; in assay [2], 87 nM.
Regarding `CCOc1ccccc1OC(c1ccccc1)C1CNCCO1` (centres unmarked) [reboxetine], in assay [3] (sc, 1 hour prior to naloxone, 15 minutes post-naloxone), the “effect on naloxone-induced flush at maximal flush (dose response)” value was “dose-dependently abates the naloxone-induced flush”. Moreover, in assay [3] (sc), the “changes in TST over time, effect on naloxone-induced flush” value is given as “dose-dependently abate the naloxone-induced flush”.
Take `CN(C)C[C@@H](c1ccc(O)cc1)C1(O)CCCCC1` (single isomer, unassigned) [R-ODV, R-enantiomer of O-desmethylvenlafaxine]: the “ED50 value, abatement of naloxone-induced flush” value in assay [3] (sc, 1 hour prior to naloxone) is reported as 14.4+13 mg/kg.
For `CNCCC(Oc1ccc(C(F)(F)F)cc1)c1ccccc1` (centres unmarked) [fluoxetine], the “effect on naloxone-induced flush, alone” value in assay [3] (fluoxetine 10 mg/kg sc) is “did not abate the naloxone-induced flush”.
Usually ED50 stands for the midpoint of the dose-response relation. Consider `Fc1ccc([C@@H]2CCNC[C@H]2COc2ccc3c(c2)OCO3)cc1` [paroxetine], for which the median effective dose (ED50) in assay [3] (Rattus norvegicus, sc, read-out: ED50 value, abatement of naloxone-induced flush) amounted to 22.3 mg/kg.

Values taken from patent US20040152710A1, “Use of norepinephrine reuptake modulators for preventing and treating vasomotor symptoms” (priority 2002, published 2004).
